This is an account of results in ChEMBL document CHEMBL4334438, “Discovery of novel glycogen synthase kinase-3α inhibitors: Structure-based virtual screening, preliminary SAR and biological evaluation for treatment of acute myeloid leukemia” (Eur J Med Chem, 2019).

In assay [1] the target is Mitogen-activated protein kinase kinase kinase kinase 5 (Homo sapiens) (UniProt Q9Y4K4). As to the kind of experiment: Inhibition of recombinant human MAP4K5 assessed as residual activity at 1 uM using myelin basic protein as substrate incubated for 40 mins in presence of [gamma-33ATP by scintillation counting based radiometry assay relative to control.
Assay [2] deals with Calcium/calmodulin-dependent protein kinase type II subunit gamma (Homo sapiens) (UniProt Q13555). As to the kind of experiment: Inhibition of recombinant human CaMK2gamma (1 to 330 residues) assessed as residual activity at 1 uM […] incubated for 40 mins in presence of [gamma-33ATP] by scintillation counting based radiometry assay relative to control.

Assay [3] has as its target Tau-tubulin kinase 2 (Homo sapiens) (UniProt Q6IQ55). As to the kind of experiment: Inhibition of human TTBK2 (1 to 331 residues) assessed as residual activity at 1 uM using Casein as substrate measured after 40 mins in presence of [gamma33P]ATP by scintillation counting method relative to control.
The target of assay [4] is cAMP-dependent protein kinase catalytic subunit PRKX (Homo sapiens) (UniProt P51817). In words: Inhibition of recombinant human full length PrKX assessed as residual activity at 1 uM using RRRLSFAEPG as substrate measured after 40 mins in presence of [gamma33P]ATP by scintillation counting method relative to control.
In assay [5] the target is Mitogen-activated protein kinase 9 (Homo sapiens) (UniProt P45984). In words: Inhibition of human JNK2alpha2 assessed as residual activity at 1 uM using ATF2 as substrate after 40 mins by [gamma-33ATP] radiometric assay relative to control.
The species named for another assay is Homo sapiens. In words: Inhibition of recombinant full-length human PI3K p120gamma R459Q mutant at 1 uM assessed as residual activity at 1 uM using phosphatidylinositol-4, 5-bisphosphate as substrate measured after 40 mins by fluorescence assay.
Assay [6] deals with PI3-kinase p110-alpha/p85-alpha (Homo sapiens), P27986+P42336 [H1047R]. As to the kind of experiment: Inhibition of recombinant full-length human PI3K p110alpha H1047R mutant/p85alpha assessed as residual activity at 1 uM assessed as residual activity at 1 uM using phosphatidylinositol-4, 5-bisphosphate as substrate incubated for 40 mins in presence of [gamma33P]ATP by scintillation counting based radiometry assay relative to control. The class given is protein-complex assay.

In assay [7] the target is Serine/threonine-protein kinase PAK 3 (Homo sapiens) (UniProt O75914). In words: Inhibition of recombinant full-length human PAK3 assessed as residual activity at 1 uM using RRRLSFAEPG as substrate measured after 40 mins in presence of [gamma33P]ATP by scintillation counting method relative to control.
Assay [8] concerns the target Calcium/calmodulin-dependent protein kinase type IV (Homo sapiens) (UniProt Q16566). In words: Inhibition of recombinant full length human CaMK4 assessed as residual activity at 1 uM […] incubated for 40 mins in presence of [gamma-33ATP] by scintillation counting based radiometry assay relative to control.
Assay [9] relates to Serine/threonine-protein kinase D1 (Homo sapiens), Q15139 [UNDEFINED MUTATION]. In words: Inhibition of recombinant full-length human PKCmu R135A mutant assessed as residual activity at 1 uM using KKLNRTLSVA as substrate incubated for 40 mins in presence of [gamma33P]ATP by scintillation counting based radiometry assay relative to control.
In assay [10] the target is Leukocyte tyrosine kinase receptor (Homo sapiens) (UniProt P29376). In words: Inhibition of recombinant human LTK (450 to end residues) assessed as residual activity at 1 uM using GEEPLYWSFPAKKK as substrate after 40 mins in presence of [gamma-33ATP] by scintillation counting based radiometry assay relative to control.
Assay [11] addresses Serine/threonine-protein kinase PLK2 (Homo sapiens) (UniProt Q9NYY3). In words: Inhibition of human Snk (65 to 409 residues) assessed as residual activity at 1 uM using casein as substrate measured after 40 mins in presence of [gamma33P]ATP by scintillation counting method relative to control.
The target in assay [12] is Ribosomal protein S6 kinase alpha-4 (Homo sapiens) (UniProt O75676). In words: Inhibition of recombinant human MSK2 (2 to end residues) assessed as residual activity at 1 uM using GRPRTSSFAEGKK as substrate measured after 40 mins in presence of [gamma33P]ATP by scintillation counting method relative to control.
Assay [13] deals with Death-associated protein kinase 2 (Homo sapiens) (UniProt Q9UIK4). In words: Inhibition of recombinant full length human DAPK2 assessed as residual activity at 1 uM Calmodulin as substrate incubated 40 mins in presence of [gamma-33ATP] by scintillation counting based radiometry assay relative to control.
Assay [14] deals with Tyrosine-protein kinase FRK (Homo sapiens) (UniProt P42685). As to the kind of experiment: Inhibition of recombinant human PTK5 (218 to end residues) assessed as residual activity at 1 uM using GGEEEEYFELVKKKK as substrate measured after 40 mins in presence of [gamma33P]ATP by scintillation counting method relative to control.
Assay [15] has as its system Platelet-derived growth factor receptor alpha (Homo sapiens), P16234 [D842V]. As to the kind of experiment: Inhibition of human PDGFRalpha D842V mutant (550 to end residues) assessed as residual activity at 1 uM using GGMEDIYFEFMGGKKK as substrate measured after 40 mins in presence of [gamma33P]ATP by scintillation counting method relative to control.
The target of assay [16] is Myosin light chain kinase 2, skeletal/cardiac muscle (Homo sapiens) (UniProt Q9H1R3). In words: Inhibition of recombinant full-length human MYLK2 at 1 uM using KKLNRTLSFAEPG as substrate measured after 40 mins in presence of [gamma33P]ATP by scintillation counting method relative to control. Also noted: scale not given: the % may be the effect or the level left.
Assay [17] deals with Serine/threonine-protein kinase B-raf (Homo sapiens), P15056 [V600E]. As to the kind of experiment: Inhibition of recombinant full length human B-Raf V599E mutant (416 to end residues) assessed as residual activity at 1 uM using myelin basic protein as substrate incubated for 40 mins in presence of [gamma-33ATP] by scintillation counting based radiometry assay relative to control.

The target in assay [18] is Receptor-interacting serine/threonine-protein kinase 1 (Homo sapiens) (UniProt Q13546). As to the kind of experiment: Inhibition of recombinant human RIPK1 (8 to 322 residues) assessed as residual activity at 1 uM using myelin basic protein as substrate measured after 120 mins in presence of [gamma33P]ATP by scintillation counting method relative to control.
The target in assay [19] is Calcium/calmodulin-dependent protein kinase type II subunit alpha (Homo sapiens) (UniProt Q9UQM7). In words: Inhibition of recombinant full length human CaMK2alpha assessed as residual activity at 1 uM using KKLNRTLSFAEPG as substrate incubated for 40 mins in presence of [gamma-33ATP] by scintillation counting based radiometry assay relative to control.
For assay [20], the target named is Fibroblast growth factor receptor 2 (Homo sapiens) (UniProt P21802). As to the kind of experiment: Inhibition of recombinant human FGFR2 (456 to 770 residues) assessed as residual activity at 1 uM using poly(Glu, Tyr) 4:1 as substrate at 40 mins in presence of [gamma-33ATP] by scintillation counting based radiometry assay relative to control.

Chain of Tau-tubulin kinase 2 (Homo sapiens) (Q6IQ55 whole entry, the tested form may be a part): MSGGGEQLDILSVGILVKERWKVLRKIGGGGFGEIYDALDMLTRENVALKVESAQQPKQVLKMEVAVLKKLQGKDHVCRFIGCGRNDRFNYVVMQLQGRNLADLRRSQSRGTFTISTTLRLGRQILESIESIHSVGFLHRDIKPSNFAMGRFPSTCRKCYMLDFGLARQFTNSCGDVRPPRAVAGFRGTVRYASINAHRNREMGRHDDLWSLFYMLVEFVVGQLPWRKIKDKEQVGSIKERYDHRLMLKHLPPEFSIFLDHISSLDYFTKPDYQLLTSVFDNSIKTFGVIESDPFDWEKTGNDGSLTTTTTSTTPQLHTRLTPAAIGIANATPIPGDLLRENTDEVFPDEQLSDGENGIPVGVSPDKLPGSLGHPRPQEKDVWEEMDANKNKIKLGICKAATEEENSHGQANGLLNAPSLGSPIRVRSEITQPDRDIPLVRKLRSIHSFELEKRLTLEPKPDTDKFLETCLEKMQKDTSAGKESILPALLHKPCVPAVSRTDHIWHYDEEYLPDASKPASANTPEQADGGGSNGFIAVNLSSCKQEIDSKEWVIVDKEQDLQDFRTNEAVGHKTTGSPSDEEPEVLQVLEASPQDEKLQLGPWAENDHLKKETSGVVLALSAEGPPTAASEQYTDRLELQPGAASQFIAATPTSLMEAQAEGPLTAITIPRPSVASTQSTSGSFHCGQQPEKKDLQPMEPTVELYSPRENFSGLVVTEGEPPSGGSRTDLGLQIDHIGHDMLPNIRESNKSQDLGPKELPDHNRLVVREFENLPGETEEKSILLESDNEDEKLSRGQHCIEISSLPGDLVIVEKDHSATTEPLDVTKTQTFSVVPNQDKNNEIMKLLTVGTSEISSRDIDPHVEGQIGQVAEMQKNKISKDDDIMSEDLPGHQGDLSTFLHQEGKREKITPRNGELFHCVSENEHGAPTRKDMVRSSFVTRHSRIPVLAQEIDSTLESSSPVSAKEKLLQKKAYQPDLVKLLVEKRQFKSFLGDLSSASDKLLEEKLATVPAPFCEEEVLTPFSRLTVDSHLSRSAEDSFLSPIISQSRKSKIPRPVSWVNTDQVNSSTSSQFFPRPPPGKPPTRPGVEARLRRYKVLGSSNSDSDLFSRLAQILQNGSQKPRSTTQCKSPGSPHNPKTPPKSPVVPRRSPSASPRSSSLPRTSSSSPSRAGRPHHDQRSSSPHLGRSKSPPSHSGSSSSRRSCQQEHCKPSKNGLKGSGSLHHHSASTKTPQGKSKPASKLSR
Chain of Serine/threonine-protein kinase D1 (Homo sapiens), Q15139 [UNDEFINED MUTATION] (Q15139 whole entry, looked up, stated change not applied): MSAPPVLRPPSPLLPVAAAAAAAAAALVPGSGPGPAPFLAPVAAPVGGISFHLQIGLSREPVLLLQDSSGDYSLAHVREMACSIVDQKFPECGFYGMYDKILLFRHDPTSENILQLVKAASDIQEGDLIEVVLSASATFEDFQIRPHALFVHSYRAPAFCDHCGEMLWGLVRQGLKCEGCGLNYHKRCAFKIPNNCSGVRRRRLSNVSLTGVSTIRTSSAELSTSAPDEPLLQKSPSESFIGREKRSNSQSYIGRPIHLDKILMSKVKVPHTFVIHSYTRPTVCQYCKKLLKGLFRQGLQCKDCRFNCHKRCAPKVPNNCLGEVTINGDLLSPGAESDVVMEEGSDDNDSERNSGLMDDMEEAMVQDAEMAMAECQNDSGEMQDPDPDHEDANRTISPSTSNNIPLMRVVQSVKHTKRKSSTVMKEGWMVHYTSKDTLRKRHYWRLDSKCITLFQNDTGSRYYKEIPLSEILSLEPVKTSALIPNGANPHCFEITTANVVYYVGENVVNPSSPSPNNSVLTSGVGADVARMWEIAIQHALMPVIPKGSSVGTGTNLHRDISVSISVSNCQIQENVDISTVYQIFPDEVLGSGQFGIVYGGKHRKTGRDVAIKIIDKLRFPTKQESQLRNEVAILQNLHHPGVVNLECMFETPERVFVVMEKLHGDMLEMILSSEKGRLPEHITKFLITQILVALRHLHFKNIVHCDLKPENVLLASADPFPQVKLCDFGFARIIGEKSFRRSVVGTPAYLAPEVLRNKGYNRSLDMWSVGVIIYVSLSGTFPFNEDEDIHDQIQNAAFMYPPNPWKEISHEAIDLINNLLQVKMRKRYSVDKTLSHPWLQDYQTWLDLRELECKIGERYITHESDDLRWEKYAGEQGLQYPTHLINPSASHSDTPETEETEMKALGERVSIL
Chain of cAMP-dependent protein kinase catalytic subunit PRKX (Homo sapiens) (P51817 whole entry): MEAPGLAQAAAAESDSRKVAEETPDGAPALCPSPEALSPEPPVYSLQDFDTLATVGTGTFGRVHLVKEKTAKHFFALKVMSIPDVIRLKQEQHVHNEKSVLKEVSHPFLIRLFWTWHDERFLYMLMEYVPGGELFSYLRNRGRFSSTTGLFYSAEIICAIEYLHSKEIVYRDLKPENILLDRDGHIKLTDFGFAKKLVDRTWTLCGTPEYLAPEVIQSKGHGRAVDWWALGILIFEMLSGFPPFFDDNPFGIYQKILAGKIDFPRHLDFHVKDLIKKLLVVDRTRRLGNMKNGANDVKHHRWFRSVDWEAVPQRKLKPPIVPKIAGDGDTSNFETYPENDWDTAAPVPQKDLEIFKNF
Chain of Leukocyte tyrosine kinase receptor (Homo sapiens) (P29376 whole entry, the tested form may be a part): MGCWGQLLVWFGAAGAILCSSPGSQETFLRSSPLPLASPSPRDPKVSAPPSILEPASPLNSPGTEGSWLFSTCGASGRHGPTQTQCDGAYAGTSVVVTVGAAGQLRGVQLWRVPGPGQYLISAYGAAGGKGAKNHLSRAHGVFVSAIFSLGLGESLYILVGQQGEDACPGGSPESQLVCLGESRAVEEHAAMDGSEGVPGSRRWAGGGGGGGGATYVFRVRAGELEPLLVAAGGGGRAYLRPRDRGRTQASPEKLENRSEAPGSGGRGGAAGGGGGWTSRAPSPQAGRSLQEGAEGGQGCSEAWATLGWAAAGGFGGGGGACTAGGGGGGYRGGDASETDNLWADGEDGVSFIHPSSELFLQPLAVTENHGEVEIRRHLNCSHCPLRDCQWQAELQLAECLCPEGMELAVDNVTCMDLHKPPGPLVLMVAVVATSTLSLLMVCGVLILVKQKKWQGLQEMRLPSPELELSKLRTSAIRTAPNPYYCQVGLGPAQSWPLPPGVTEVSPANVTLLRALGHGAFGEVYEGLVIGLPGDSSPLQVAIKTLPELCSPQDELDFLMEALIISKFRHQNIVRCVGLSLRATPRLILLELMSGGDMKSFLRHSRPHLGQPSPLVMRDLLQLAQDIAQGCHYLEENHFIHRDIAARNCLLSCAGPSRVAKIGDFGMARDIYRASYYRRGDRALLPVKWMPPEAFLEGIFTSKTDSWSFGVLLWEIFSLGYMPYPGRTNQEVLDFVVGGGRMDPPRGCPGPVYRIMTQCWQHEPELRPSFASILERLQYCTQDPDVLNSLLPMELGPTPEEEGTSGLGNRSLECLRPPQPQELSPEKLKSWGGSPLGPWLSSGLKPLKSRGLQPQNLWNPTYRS
Chain of Calcium/calmodulin-dependent protein kinase type II subunit gamma (Homo sapiens) (Q13555 whole entry, the tested form may be a part): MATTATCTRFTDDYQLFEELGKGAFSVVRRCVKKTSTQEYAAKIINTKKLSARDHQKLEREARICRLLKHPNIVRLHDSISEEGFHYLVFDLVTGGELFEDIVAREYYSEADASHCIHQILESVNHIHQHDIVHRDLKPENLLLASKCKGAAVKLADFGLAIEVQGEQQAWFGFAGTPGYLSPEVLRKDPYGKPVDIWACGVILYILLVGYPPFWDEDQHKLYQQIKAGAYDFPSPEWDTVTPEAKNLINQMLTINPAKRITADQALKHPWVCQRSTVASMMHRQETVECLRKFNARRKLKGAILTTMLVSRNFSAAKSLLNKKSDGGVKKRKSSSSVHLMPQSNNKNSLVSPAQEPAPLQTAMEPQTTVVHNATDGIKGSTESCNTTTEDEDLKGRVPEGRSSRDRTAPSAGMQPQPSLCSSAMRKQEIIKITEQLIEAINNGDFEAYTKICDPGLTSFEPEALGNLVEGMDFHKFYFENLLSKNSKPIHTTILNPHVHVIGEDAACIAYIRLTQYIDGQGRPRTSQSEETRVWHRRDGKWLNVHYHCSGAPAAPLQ
Chain of Ribosomal protein S6 kinase alpha-4 (Homo sapiens) (O75676 whole entry, looked up): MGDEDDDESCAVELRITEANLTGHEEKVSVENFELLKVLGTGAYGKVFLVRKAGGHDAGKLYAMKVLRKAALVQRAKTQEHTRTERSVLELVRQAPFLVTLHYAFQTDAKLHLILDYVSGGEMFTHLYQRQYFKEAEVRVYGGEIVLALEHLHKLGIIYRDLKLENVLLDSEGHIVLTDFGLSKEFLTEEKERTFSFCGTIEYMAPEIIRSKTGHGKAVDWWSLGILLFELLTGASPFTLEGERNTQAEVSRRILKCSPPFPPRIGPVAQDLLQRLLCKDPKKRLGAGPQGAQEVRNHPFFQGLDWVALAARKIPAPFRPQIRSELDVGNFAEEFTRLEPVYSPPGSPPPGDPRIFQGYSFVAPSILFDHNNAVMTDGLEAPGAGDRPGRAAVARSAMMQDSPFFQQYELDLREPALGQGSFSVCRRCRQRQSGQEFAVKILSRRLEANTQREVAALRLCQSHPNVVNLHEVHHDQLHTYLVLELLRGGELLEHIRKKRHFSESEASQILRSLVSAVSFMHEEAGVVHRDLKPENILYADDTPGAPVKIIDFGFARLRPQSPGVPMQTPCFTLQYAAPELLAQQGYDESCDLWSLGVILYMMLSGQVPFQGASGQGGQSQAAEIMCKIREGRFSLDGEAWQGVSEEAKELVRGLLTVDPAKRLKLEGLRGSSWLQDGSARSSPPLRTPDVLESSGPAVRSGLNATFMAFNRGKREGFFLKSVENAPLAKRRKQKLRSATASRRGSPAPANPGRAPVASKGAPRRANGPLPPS
Chain of Death-associated protein kinase 2 (Homo sapiens) (Q9UIK4 whole entry, looked up): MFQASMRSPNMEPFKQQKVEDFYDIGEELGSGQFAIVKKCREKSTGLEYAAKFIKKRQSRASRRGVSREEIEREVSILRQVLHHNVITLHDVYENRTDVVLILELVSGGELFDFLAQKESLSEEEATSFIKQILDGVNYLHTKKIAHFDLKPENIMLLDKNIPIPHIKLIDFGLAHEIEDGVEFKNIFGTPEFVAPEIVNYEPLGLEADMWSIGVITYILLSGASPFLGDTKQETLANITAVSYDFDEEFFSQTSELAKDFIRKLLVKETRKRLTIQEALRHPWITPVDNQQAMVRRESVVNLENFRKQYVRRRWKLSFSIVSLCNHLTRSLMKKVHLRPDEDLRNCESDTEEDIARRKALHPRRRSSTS

On to `N=C1NC(=O)/C(=C\c2ccc(-c3cccc([N+](=O)[O-])c3)o2)S1`, for which the Activity amounted to 95% in assay [1]; 86% in assay [2]; 107% in assay [3]; 96% in [4]; 103% in [5]; 93% in the assay filed under Homo sapiens. Further, the Activity in [6] is 100%; in [7], 95%; in [8], 87%; in [9], 97%; in [10], 114%; in assay [11], 92%. The Activity in assay [12] stood at 97%; in assay [13], 83%; in assay [14], 92%; in assay [15], 97%; in assay [16], 98%; in assay [17] it was 95%. Further, the results for the Activity in [18], in assay [19] and in assay [20] were 100%, 80% and 102%, respectively.

As for `C=CCOC(=O)c1cc(-c2ccc(/C=C3/NC(=S)NC3=O)o2)ccc1Cl`, the Activity in [1] was 94%; in [2] it was 68%; in assay [3] it was 111%; in [4] it was 107%; in [5] it was 109%; in the assay listed under Homo sapiens, 93%. In addition, the Activity in assay [6] amounted to 94%; in [7], 102%; in [8] it was 95%; in [9] it was 99%; in [10] it was 104%; in [11], 91%. Also, the Activity in assay [12] worked out at 103%; in assay [13] it was 86%; in assay [14] it was 96%; in assay [15], 100%; in assay [16], 92%; in [17], 87%. Besides, the Activity came out at 106% in assay [18], 62% in assay [19] and 98% in assay [20].
